The values that follow come from patent US11691962B2 (eXIthera Pharmaceuticals, Inc., priority 2018, dated 2023).

pIC50: −log10 of the molar value.

Sequence of Factor XIa (P03951 388-625): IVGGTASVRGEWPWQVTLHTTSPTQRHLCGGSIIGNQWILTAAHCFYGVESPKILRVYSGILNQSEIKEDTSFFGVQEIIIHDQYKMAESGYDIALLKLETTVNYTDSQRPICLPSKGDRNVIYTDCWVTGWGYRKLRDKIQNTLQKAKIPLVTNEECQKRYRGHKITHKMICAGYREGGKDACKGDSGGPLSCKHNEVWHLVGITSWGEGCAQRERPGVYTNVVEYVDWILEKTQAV
Sequence of Factor XIa (P03951 19-387 partner): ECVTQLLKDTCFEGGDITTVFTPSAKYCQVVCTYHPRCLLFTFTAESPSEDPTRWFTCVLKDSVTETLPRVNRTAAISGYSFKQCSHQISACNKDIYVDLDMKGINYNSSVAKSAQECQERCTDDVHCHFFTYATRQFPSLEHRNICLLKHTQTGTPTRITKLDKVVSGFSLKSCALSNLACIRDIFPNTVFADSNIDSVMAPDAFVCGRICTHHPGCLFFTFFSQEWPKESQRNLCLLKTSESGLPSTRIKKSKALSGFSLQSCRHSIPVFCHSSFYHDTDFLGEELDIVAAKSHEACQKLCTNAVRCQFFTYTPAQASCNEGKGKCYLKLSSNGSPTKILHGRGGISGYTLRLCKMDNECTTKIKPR

For this assay, the target named is Factor XIa (Homo sapiens (Human), UniProt P03951). The assay can be described thus: Factor XIa enzyme inhibition assay (dose response, fluorogenic AMC substrate). The assay is classed as biochemical. The following applies: read-out: hFXIa IC50. The method in brief:
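Fluorogenic progress curves (30 min, 1-min reads, 30° C) were recorded for 0.25 nM FXIa cleaving 50 μM Glp-Pro-Arg-AMC in Hepes pH 7.4 buffer with NaCl and Tween 20. Compounds were serially two-fold diluted, and IC50 was fitted with a Hill equation.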
The pIC50 is the negative decadic logarithm of the IC50, by convention in mol/L. `CC[C@@H](NC(=O)N1C(=O)[C@H](Cc2cc(C)nc(N)c2)[C@H]1C(=O)N(C)c1cnn(C)c1)c1cc(C)ccc1F` [Compound 1-177, (2S,3R)-3-((2-amino-6-methylpyridin-4-yl)methyl)-N2-(1-methyl-1H-pyrazol-4-yl)-N1-((R)-1-(2-fluoro-5-methylphenyl)propyl)-N2-methyl-4-oxoazetidine-1,2-dicarboxamide]: the pIC50 was 7.00 to 8.00. As for `CC[C@@H](NC(=O)N1C(=O)[C@H](Cc2cc(C)nc(N)c2)[C@H]1C(=O)N(C)c1cnn(C)c1)c1cc(F)ccc1C` [Compound 1-178, (2S,3R)-3-((2-amino-6-methylpyridin-4-yl)methyl)-N2-(1-methyl-1H-pyrazol-4-yl)-N1-((R)-1-(5-fluoro-2-methylphenyl)propyl)-N2-methyl-4-oxoazetidine-1,2-dicarboxamide], the negative-log IC50 (pIC50) is greater than 8.00.

Turning to `CC[C@@H](NC(=O)N1C(=O)[C@H](Cc2cc(C)nc(N)c2)[C@H]1C(=O)N(C)c1cnn(C)c1)c1ccc(C)cc1C` [Compound 1-179, (2S,3R)-3-((2-amino-6-methylpyridin-4-yl)methyl)-N2-(1-methyl-1H-pyrazol-4-yl)-N1-((R)-1-(2,4-dimethylphenyl)propyl)-N2-methyl-4-oxoazetidine-1,2-dicarboxamide], the negative logarithm of the IC50 (pIC50) is greater than 8.00.

For `CC[C@@H](NC(=O)N1C(=O)[C@H](Cc2cc(C)nc(N)c2)[C@H]1C(=O)N(C)c1cnn(C)c1)c1ccc(F)cc1C` [Compound 1-180, (2S,3R)-3-((2-amino-6-methylpyridin-4-yl)methyl)-N2-(1-methyl-1H-pyrazol-4-yl)-N1-((R)-1-(4-fluoro-2-methylphenyl)propyl)-N2-methyl-4-oxoazetidine-1,2-dicarboxamide], the pIC50 was 7.00 to 8.00.

Take `CC[C@@H](NC(=O)N1C(=O)[C@H](Cc2cc(C)nc(N)c2)[C@H]1C(=O)N(C)c1cnn(C)c1)c1ccc(C)cc1` [Compound 1-181, (2S,3R)-3-((2-amino-6-methylpyridin-4-yl)methyl)-N2-(1-methyl-1H-pyrazol-4-yl)-N1-((R)-1-(4-methylphenyl)propyl)-N2-methyl-4-oxoazetidine-1,2-dicarboxamide]: the negative logarithm of the IC50 (pIC50) is 7.00 to 8.00. On to `CC[C@@H](NC(=O)N1C(=O)[C@H](Cc2cc(C)nc(N)c2)[C@H]1C(=O)N(C)c1cnn(C)c1)c1ccc(C)cc1F` [Compound 1-183, (2S,3R)-3-((2-amino-6-methylpyridin-4-yl)methyl)-N2-(1-methyl-1H-pyrazol-4-yl)-N1-((R)-1-(2-fluoro-4-methylphenyl)propyl)-N2-methyl-4-oxoazetidine-1,2-dicarboxamide], for which the negative-log IC50 (pIC50) was greater than 8.00.

Consider `CC[C@@H](NC(=O)N1C(=O)[C@H](Cc2cc(C)nc(N)c2)[C@H]1C(=O)N(C)c1nncs1)c1ccccc1` [Compound 1-186, (2S,3R)-3-((2-amino-6-methylpyridin-4-yl)methyl)-N2-(1,3,4-thiadiazol-2-yl)-N1-((R)-1-phenylpropyl)-N2-methyl-4-oxoazetidine-1,2-dicarboxamide], for which the negative logarithm of the IC50 (pIC50) is greater than 8.00. With `CC[C@@H](NC(=O)N1C(=O)[C@H](Cc2cc(C)nc(N)c2)[C@H]1C(=O)N(C)c1nnco1)c1ccccc1` [Compound 1-187, (2S,3R)-3-((2-amino-6-methylpyridin-4-yl)methyl)-N2-(1,3,4-oxadiazol-2-yl)-N1-((R)-1-phenylpropyl)-N2-methyl-4-oxoazetidine-1,2-dicarboxamide], the pIC50 is greater than 8.00. As for `CC[C@@H](NC(=O)N1C(=O)[C@H](Cc2cc(C)nc(N)c2)[C@H]1C(=O)N(C)c1cnn(C)c1)c1ccc(F)cc1F` [Compound 1-188, (2S,3R)-3-((2-amino-6-methylpyridin-4-yl)methyl)-N2-(1-methyl-1H-pyrazol-4-yl)-N1-((R)-1-(2,4-difluorophenyl)propyl)-N2-methyl-4-oxoazetidine-1,2-dicarboxamide], the pIC50 was 7.00 to 8.00. As for `CC[C@@H](NC(=O)N1C(=O)[C@H](Cc2cc(C)nc(N)c2)[C@H]1C(=O)N(C)c1cnn(C)c1)c1cc(F)cc(F)c1` [Compound 1-189, (2S,3R)-3-((2-amino-6-methylpyridin-4-yl)methyl)-N2-(1-methyl-1H-pyrazol-4-yl)-N1-((R)-1-(3,5-difluorophenyl)propyl)-N2-methyl-4-oxoazetidine-1,2-dicarboxamide], the pIC50 was 7.00 to 8.00. On to `CC[C@@H](NC(=O)N1C(=O)[C@H](Cc2cc(C)nc(N)c2)[C@H]1C(=O)N(C)c1cnn(C)c1)c1cccc(C)c1F` [Compound 1-190, (2S,3R)-3-((2-amino-6-methylpyridin-4-yl)methyl)-N2-(1-methyl-1H-pyrazol-4-yl)-N1-((R)-1-(2-fluoro-3-methylphenyl)propyl)-N2-methyl-4-oxoazetidine-1,2-dicarboxamide], for which the pIC50 was greater than 8.00.

In the case of `CC[C@@H](NC(=O)N1C(=O)[C@H](Cc2cc(C)nc(N)c2)[C@H]1C(=O)N(C)c1cnn(C)c1)c1cccc(F)c1C` [Compound 1-191, (2S,3R)-3-((2-amino-6-methylpyridin-4-yl)methyl)-N2-(1-methyl-1H-pyrazol-4-yl)-N1-((R)-1-(3-fluoro-2-methylphenyl)propyl)-N2-methyl-4-oxoazetidine-1,2-dicarboxamide], the negative logarithm of the IC50 (pIC50) is 7.00 to 8.00. On to `CC[C@@H](NC(=O)N1C(=O)[C@H](Cc2ccnc(N)c2)[C@H]1C(=O)N(C)c1nccn1C)c1ccc(C)c(F)c1F` [Compound 1-192, (2S,3R)-3-((2-aminopyridin-4-yl)methyl)-N2-(1-methyl-1H-imidazol-2-yl)-N1-((R)-1-(2,3-difluoro-4-methylphenyl)propyl)-N2-methyl-4-oxoazetidine-1,2-dicarboxamide], for which the negative logarithm of the IC50 (pIC50) is greater than 8.00. In the case of `CC[C@@H](NC(=O)N1C(=O)[C@H](Cc2ccnc(N)c2)[C@H]1C(=O)N(C)c1nccn1C)c1cc(C)c(F)c(C)c1` [Compound 1-195, (2S,3R)-3-((2-aminopyridin-4-yl)methyl)-N2-(1-methyl-1H-imidazol-2-yl)-N1-((R)-1-(3,5-dimethyl-4-fluorophenyl)propyl)-N2-methyl-4-oxoazetidine-1,2-dicarboxamide], the negative-log IC50 (pIC50) was greater than 8.00.

`CC[C@@H](NC(=O)N1C(=O)[C@H](Cc2ccnc(N)c2)[C@H]1C(=O)N(C)c1nccn1C)c1ccc(C)c(F)c1C` [Compound 1-196, (2S,3R)-3-((2-aminopyridin-4-yl)methyl)-N2-(1-methyl-1H-imidazol-2-yl)-N1-((R)-1-(2,4-dimethyl-3-fluorophenyl)propyl)-N2-methyl-4-oxoazetidine-1,2-dicarboxamide]: the pIC50 is greater than 8.00. For `CC[C@@H](NC(=O)N1C(=O)[C@H](Cc2ccnc(N)c2)[C@H]1C(=O)N(C)c1ccn(C)n1)c1ccc(C)c(F)c1F` [Compound 1-201, (2S,3R)-3-((2-aminopyridin-4-yl)methyl)-N2-(1-methyl-1H-pyrazol-3-yl)-N1-((R)-1-(2,3-difluoro-4-methylphenyl)propyl)-N2-methyl-4-oxoazetidine-1,2-dicarboxamide], the negative-log IC50 (pIC50) is greater than 8.00. The value for `CC[C@@H](NC(=O)N1C(=O)[C@H](Cc2ccnc(N)c2)[C@H]1C(=O)N(C)c1ccnn1C)c1ccc(C)c(F)c1F` [Compound 1-202, (2S,3R)-3-((2-aminopyridin-4-yl)methyl)-N2-(1-methyl-1H-pyrazol-5-yl)-N1-((R)-1-(2,3-difluoro-4-methylphenyl)propyl)-N2-methyl-4-oxoazetidine-1,2-dicarboxamide] was greater than 8.00; that for `CC[C@@H](NC(=O)N1C(=O)[C@H](Cc2ccnc(N)c2)[C@H]1C(=O)N(C)c1ccn(C)n1)c1cc(C)c(F)c(C)c1` [Compound 1-203, (2S,3R)-3-((2-aminopyridin-4-yl)methyl)-N2-(1-methyl-1H-pyrazol-3-yl)-N1-((R)-1-(3,5-dimethyl-4-fluorophenyl)propyl)-N2-methyl-4-oxoazetidine-1,2-dicarboxamide] was greater than 8.00. Consider `CC[C@@H](NC(=O)N1C(=O)[C@H](Cc2ccnc(N)c2)[C@H]1C(=O)N(C)c1ccnn1C)c1cc(F)c(F)c(F)c1` [Compound 1-204, (2S,3R)-3-((2-aminopyridin-4-yl)methyl)-N2-(1-methyl-1H-pyrazol-5-yl)-N1-((R)-1-(3,4,5-trifluorophenyl)propyl)-N2-methyl-4-oxoazetidine-1,2-dicarboxamide], for which the negative-log IC50 (pIC50) is greater than 8.00.

With `CC[C@@H](NC(=O)N1C(=O)[C@H](Cc2ccnc(N)c2)[C@H]1C(=O)N(C)c1ccnn1C)c1cc(C)c(F)c(C)c1` [Compound 1-205, (2S,3R)-3-((2-aminopyridin-4-yl)methyl)-N2-(1-methyl-1H-pyrazol-5-yl)-N1-((R)-1-(3,5-dimethyl-4-fluorophenyl)propyl)-N2-methyl-4-oxoazetidine-1,2-dicarboxamide], the pIC50 is greater than 8.00. As for `CC[C@@H](NC(=O)N1C(=O)[C@H](Cc2ccnc(N)c2)[C@H]1C(=O)N(C)c1cnn(C)c1)c1cc(C)c(F)c(C)c1` [Compound 1-206, (2S,3R)-3-((2-aminopyridin-4-yl)methyl)-N2-(1-methyl-1H-pyrazol-4-yl)-N1-((R)-1-(3,5-dimethyl-4-fluorophenyl)propyl)-N2-methyl-4-oxoazetidine-1,2-dicarboxamide], the pIC50 was greater than 8.00. As for `CC[C@@H](NC(=O)N1C(=O)[C@H](Cc2ccnc(N)c2)[C@H]1C(=O)N(C)c1cnn(C)c1)c1ccc(F)c(C)c1F` [Compound 1-207, (2S,3R)-3-((2-aminopyridin-4-yl)methyl)-N2-(1-methyl-1H-pyrazol-4-yl)-N1-((R)-1-(2,4-difluoro-3-methylphenyl)propyl)-N2-methyl-4-oxoazetidine-1,2-dicarboxamide], the pIC50 is greater than 8.00. The value for `CC[C@@H](NC(=O)N1C(=O)[C@H](Cc2ccnc(N)c2)[C@H]1C(=O)N(C)c1cnn(C)c1)c1ccc(C)c(F)c1F` [Compound 1-208, (2S,3R)-3-((2-aminopyridin-4-yl)methyl)-N2-(1-methyl-1H-pyrazol-4-yl)-N1-((R)-1-(2,3-difluoro-4-methylphenyl)propyl)-N2-methyl-4-oxoazetidine-1,2-dicarboxamide] was greater than 8.00.
